Results from ChEMBL document CHEMBL5113398, “Design and synthesis of new quinoline derivatives as selective C-RAF kinase inhibitors with potent anticancer activity” (Eur J Med Chem, 2022).
In brackets after ≈: the same amount, converted by molar mass.

Columns and labels:
NCI-H23 = experiment: Anticancer activity against human NCI-H23 cells assessed as cell growth inhibition incubated for 48 hrs by SRB assay; type: functional
HCC 2998 [1] = experiment: Anticancer activity against human HCC 2998 cells assessed as cell growth inhibition incubated for 48 hrs by SRB assay; type: functional
HCT-116 = experiment: Anticancer activity against human HCT-116 cells assessed as cell growth inhibition incubated for 48 hrs by SRB assay; type: functional
SNB-75 [2] = experiment: Anticancer activity against human SNB-75 cells assessed as cell growth inhibition incubated for 48 hrs by SRB assay; type: functional
SK-MEL-2 [3] = experiment: Anticancer activity against human SK-MEL-2 cells assessed as cell growth inhibition incubated for 48 hrs by SRB assay; type: functional
SK-MEL-28 [4] = experiment: Anticancer activity against human SK-MEL-28 cells assessed as cell growth inhibition incubated for 48 hrs by SRB assay; type: functional
UACC-257 = experiment: Anticancer activity against human UACC-257 cells assessed as cell growth inhibition incubated for 48 hrs by SRB assay; type: functional
IGROV-1 = experiment: Anticancer activity against human IGROV-1 cells assessed as cell growth inhibition incubated for 48 hrs by SRB assay; type: functional
NCI/ADR-RES = experiment: Anticancer activity against human NCI/ADR-RES cells assessed as cell growth inhibition incubated for 48 hrs by SRB assay; type: functional
SK-OV-3 = experiment: Anticancer activity against human SK-OV-3 cells assessed as cell growth inhibition incubated for 48 hrs by SRB assay; type: functional
786-0 = experiment: Anticancer activity against human 786-0 cells assessed as cell growth inhibition incubated for 48 hrs by SRB assay; type: functional
ACHN [5] = experiment: Anticancer activity against human ACHN cells assessed as cell growth inhibition incubated for 48 hrs by SRB assay; type: functional
UO-31 = experiment: Anticancer activity against human UO-31 cells assessed as cell growth inhibition incubated for 48 hrs by SRB assay; type: functional
DU-145 = experiment: Anticancer activity against human DU-145 cells assessed as cell growth inhibition incubated for 48 hrs by SRB assay; type: functional
MCF7 [6] = experiment: Anticancer activity against human MCF7 cells assessed as cell growth inhibition incubated for 48 hrs by SRB assay; type: functional
Hs-578T = experiment: Anticancer activity against human Hs-578T cells assessed as cell growth inhibition incubated for 48 hrs by SRB assay; type: functional
HL-60 = experiment: Anticancer activity against human HL-60 cells assessed as total cell growth inhibition incubated for 48 hrs by SRB assay; type: functional
EKVX = experiment: Anticancer activity against human EKVX cells assessed as total cell growth inhibition incubated for 48 hrs by SRB assay; type: functional
HOP-92 = experiment: Anticancer activity against human HOP-92 cells assessed as total cell growth inhibition incubated for 48 hrs by SRB assay; type: functional
NCI-H322M = experiment: Anticancer activity against human NCI-H322M cells assessed as total cell growth inhibition incubated for 48 hrs by SRB assay; type: functional
COLO 205 = experiment: Anticancer activity against human COLO 205 cells assessed as total cell growth inhibition incubated for 48 hrs by SRB assay; type: functional
HCC 2998 [7] = experiment: Anticancer activity against human HCC 2998 cells assessed as total cell growth inhibition incubated for 48 hrs by SRB assay; type: functional
KM12 = experiment: Anticancer activity against human KM12 cells assessed as total cell growth inhibition incubated for 48 hrs by SRB assay; type: functional
SNB-75 [8] = experiment: Anticancer activity against human SNB-75 cells assessed as total cell growth inhibition incubated for 48 hrs by SRB assay; type: functional
MDA-MB-435 = experiment: Anticancer activity against human MDA-MB-435 cells assessed as total cell growth inhibition incubated for 48 hrs by SRB assay; type: functional
SK-MEL-2 [9] = experiment: Anticancer activity against human SK-MEL-2 cells assessed as total cell growth inhibition incubated for 48 hrs by SRB assay; type: functional
SK-MEL-28 [10] = experiment: Anticancer activity against human SK-MEL-28 cells assessed as total cell growth inhibition incubated for 48 hrs by SRB assay; type: functional
OVCAR-3 = experiment: Anticancer activity against human OVCAR-3 cells assessed as total cell growth inhibition incubated for 48 hrs by SRB assay; type: functional
A498 = experiment: Anticancer activity against human A498 cells assessed as total cell growth inhibition incubated for 48 hrs by SRB assay; type: functional
ACHN [11] = experiment: Anticancer activity against human ACHN cells assessed as total cell growth inhibition incubated for 48 hrs by SRB assay; type: functional
MCF7 [12] = experiment: Anticancer activity against human MCF7 cells assessed as total cell growth inhibition incubated for 48 hrs by SRB assay; type: functional
[13] = target: RAF proto-oncogene serine/threonine-protein kinase (Homo sapiens, UniProt P04049); experiment: Inhibition of c-Raf (unknown origin) in presence of ATP by hotspot kinase assay
RAF proto-oncogene serine/threonine-protein kinase, sequence (P04049 whole entry): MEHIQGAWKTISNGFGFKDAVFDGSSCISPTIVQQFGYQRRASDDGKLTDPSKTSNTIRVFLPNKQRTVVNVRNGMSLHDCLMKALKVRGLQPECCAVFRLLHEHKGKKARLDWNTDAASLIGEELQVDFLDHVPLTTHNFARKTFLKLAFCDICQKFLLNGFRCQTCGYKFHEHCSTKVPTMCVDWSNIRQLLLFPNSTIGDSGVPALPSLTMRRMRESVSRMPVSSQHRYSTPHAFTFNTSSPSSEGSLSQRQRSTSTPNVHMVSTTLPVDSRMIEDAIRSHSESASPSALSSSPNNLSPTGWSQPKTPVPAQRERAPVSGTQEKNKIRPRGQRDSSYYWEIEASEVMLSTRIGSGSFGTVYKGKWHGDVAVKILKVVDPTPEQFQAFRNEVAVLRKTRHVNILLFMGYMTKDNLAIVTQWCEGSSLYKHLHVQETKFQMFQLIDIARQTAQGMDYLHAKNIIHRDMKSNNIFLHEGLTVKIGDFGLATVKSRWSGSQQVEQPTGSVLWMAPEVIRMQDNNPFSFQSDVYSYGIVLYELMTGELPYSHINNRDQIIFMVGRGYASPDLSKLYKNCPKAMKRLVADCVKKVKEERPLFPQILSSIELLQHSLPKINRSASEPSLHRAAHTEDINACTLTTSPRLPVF

Homo sapiens = species on record: Homo sapiens; experiment: Inhibition of ABL (unknown origin) at 1 uM in presence of ATP by hotspot kinase assay
[14] = target: Serine/threonine-protein kinase A-Raf (Homo sapiens) (UniProt P10398); experiment: Inhibition of A-Raf (unknown origin) at 1 uM in presence of ATP by hotspot kinase assay
Serine/threonine-protein kinase A-Raf (Homo sapiens), sequence (P10398 whole entry): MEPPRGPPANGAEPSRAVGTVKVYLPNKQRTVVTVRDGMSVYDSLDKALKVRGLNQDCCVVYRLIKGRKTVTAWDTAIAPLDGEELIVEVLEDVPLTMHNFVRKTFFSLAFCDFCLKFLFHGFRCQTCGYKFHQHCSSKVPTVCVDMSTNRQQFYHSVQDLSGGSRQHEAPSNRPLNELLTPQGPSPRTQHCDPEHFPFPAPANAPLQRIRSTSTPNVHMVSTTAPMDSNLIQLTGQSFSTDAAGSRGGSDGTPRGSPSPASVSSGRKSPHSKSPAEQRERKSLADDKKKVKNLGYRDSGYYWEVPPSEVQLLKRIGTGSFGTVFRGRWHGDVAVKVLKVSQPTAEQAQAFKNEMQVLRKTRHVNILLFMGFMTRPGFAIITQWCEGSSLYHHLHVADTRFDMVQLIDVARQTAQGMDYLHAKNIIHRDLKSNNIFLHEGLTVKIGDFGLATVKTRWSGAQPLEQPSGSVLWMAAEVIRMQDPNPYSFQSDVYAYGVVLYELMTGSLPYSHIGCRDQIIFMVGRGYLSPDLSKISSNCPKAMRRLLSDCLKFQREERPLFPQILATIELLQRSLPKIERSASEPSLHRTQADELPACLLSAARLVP

[15] = tested on: Serine/threonine-protein kinase B-raf (Homo sapiens), P15056 [V600E]; experiment: Inhibition of B-RAF V600E mutant (unknown origin) at 1 uM in presence of ATP by hotspot kinase assay
Serine/threonine-protein kinase B-raf (Homo sapiens), P15056 [V600E], sequence (P15056 whole entry V600E): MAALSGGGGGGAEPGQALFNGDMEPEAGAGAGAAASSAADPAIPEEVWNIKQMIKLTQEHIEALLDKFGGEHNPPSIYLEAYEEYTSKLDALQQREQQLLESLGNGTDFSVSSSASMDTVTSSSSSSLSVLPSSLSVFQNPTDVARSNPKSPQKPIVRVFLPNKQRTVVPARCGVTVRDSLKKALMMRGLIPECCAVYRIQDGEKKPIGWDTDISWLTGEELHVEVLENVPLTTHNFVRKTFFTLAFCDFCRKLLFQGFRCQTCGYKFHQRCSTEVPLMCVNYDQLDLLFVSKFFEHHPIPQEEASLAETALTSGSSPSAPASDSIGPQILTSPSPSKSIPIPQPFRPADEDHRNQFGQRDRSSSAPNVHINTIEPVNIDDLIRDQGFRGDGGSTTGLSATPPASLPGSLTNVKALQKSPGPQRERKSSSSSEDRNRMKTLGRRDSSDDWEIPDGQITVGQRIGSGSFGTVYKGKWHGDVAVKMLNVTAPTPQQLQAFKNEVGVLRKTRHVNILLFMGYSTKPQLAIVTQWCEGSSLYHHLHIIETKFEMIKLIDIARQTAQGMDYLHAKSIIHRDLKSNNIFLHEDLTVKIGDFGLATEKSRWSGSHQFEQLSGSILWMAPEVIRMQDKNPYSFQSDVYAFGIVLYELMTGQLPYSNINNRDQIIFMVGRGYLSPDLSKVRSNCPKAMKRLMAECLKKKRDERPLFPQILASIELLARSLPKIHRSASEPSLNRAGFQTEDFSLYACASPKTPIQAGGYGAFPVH

RPMI-8226 [16] = experiment: Induction of apoptosis in human RPMI-8226 assessed as fold increase in caspase-3/7 activity at 0.84 uM; type: functional
RPMI-8226 [17] = experiment: Induction of apoptosis in human RPMI-8226 assessed as fold increase in caspase-3/7 activity at 1.68 uM; type: functional
RPMI-8226 [18] = experiment: Induction of apoptosis in human RPMI-8226 assessed as fold increase in caspase-3/7 activity at 2.12 uM; type: functional
RPMI-8226 [19] = experiment: Induction of necrosis in human RPMI-8226 cells assessed as LDH release at 0.84 uM; type: functional
RPMI-8226 [20] = experiment: Induction of necrosis in human RPMI-8226 cells assessed as LDH release at 1.68 uM; type: functional
RPMI-8226 [21] = experiment: Induction of necrosis in human RPMI-8226 cells assessed as LDH release at 2.12 uM; type: functional
[22] = Aqueous solubility of compound by HPLC analysis; type: physicochemical
[23] = n-Octanol/PBS partition coefficient, logD of the compound at pH 7.4; type: physicochemical
[24] = Apparent permeability of the compound from apical to basolateral side in human Caco-2 cells at pH 6.5 to 7.4; type: ADME, cell-based; conditions: Caco-2, pH 6.5
[25] = Apparent permeability across apical to basolateral side in human Caco-2 cells assessed as drug recovery at pH 6.5 to 7.4; type: ADME, cell-based; conditions: Caco-2, pH 6.5, read-out: Drug recovery

Structure (SMILES): COc1cc2cc(Oc3ccc(NC(=O)Nc4cc(C(F)(F)F)cc(C(F)(F)F)c4)cc3)c(C)nc2cc1OCCN1CCOCC1
- GI50 (NCI-H23): 1660 nM
- GI50 (HCC 2998 [1]): 2.09 µM
- GI50 (HCT-116): 1420 nM
- GI50 (SNB-75 [2]): 1020 nM
- GI50 (SK-MEL-2 [3]): 1740 nM
- GI50 (SK-MEL-28 [4]): 1800 nM
- GI50 (UACC-257): 1400 nM
- GI50 (IGROV-1): 1540 nM
- GI50 (NCI/ADR-RES): 1590 nM
- GI50 (SK-OV-3): 2.09 µM
- GI50 (786-0): 1280 nM
- GI50 (ACHN [5]): 1530 nM
- GI50 (UO-31): 1010 nM
- GI50 (DU-145): 1930 nM
- GI50 (MCF7 [6]): 1430 nM
- GI50 (Hs-578T): 1560 nM
- TGI (HL-60): 4.93 µM
- TGI (EKVX): 6.68 µM
- TGI (HOP-92): 2.71 µM
- TGI (NCI-H322M): 6.87 µM
- TGI (COLO 205): 2.18 µM
- TGI (HCC 2998 [7]): 6.97 µM
- TGI (KM12): 5.95 µM
- TGI (SNB-75 [8]): 4.48 µM
- TGI (MDA-MB-435): 6.72 µM
- TGI (SK-MEL-2 [9]): 6.91 µM
- TGI (SK-MEL-28 [10]): 6.94 µM
- TGI (OVCAR-3): 5.28 µM
- TGI (A498): 6.69 µM
- TGI (ACHN [11]): 5.42 µM
- TGI (MCF7 [12]): 3.91 µM
- IC50 [13]: 193 nM
- inhibition (Homo sapiens): -2.3%
- inhibition [14]: 1.23%
- inhibition [15]: 34.6%
- fold change (FC) (RPMI-8226 [16]): 1.97
- fold change (FC) (RPMI-8226 [17]): 2.68
- fold change (FC) (RPMI-8226 [18]): 2.84
- Activity (RPMI-8226 [19]): 9.5%
- Activity (RPMI-8226 [20]): 23.4%
- Activity (RPMI-8226 [21]): 31.65%
- solubility [22]: 317 µM (≈ 211 µg/mL)
- logD [23]: 2.91
- Papp A→B [24]: 0.4 ×10⁻⁶ cm/s
- recovery [25]: 74%

Structure (SMILES): COc1cc2cc(Oc3ccc(NC(=O)Nc4ccc(F)c(C(F)(F)F)c4)cc3)c(C)nc2cc1OCCN1CCOCC1
- GI50 (NCI-H23): 1430 nM
- GI50 (HCC 2998 [1]): 5.34 µM
- GI50 (HCT-116): 1110 nM
- GI50 (SNB-75 [2]): 1960 nM
- GI50 (SK-MEL-2 [3]): 2380 nM
- GI50 (SK-MEL-28 [4]): 1620 nM
- GI50 (UACC-257): 1750 nM
- GI50 (IGROV-1): 2690 nM
- GI50 (NCI/ADR-RES): 2560 nM
- GI50 (SK-OV-3): 3.76 µM
- GI50 (786-0): 1730 nM
- GI50 (ACHN [5]): 2300 nM
- GI50 (UO-31): 1710 nM
- GI50 (DU-145): 3500 nM
- GI50 (MCF7 [6]): 1460 nM
- GI50 (Hs-578T): 2120 nM
- TGI (HL-60): 6.14 µM
- TGI (EKVX): 20.7 µM
- TGI (HOP-92): 4.96 µM
- TGI (NCI-H322M): 13.6 µM
- TGI (COLO 205): 4.28 µM
- TGI (HCC 2998 [7]): 16.7 µM
- TGI (KM12): 10.6 µM
- TGI (SNB-75 [8]): 7.45 µM
- TGI (MDA-MB-435): 3.9 µM
- TGI (SK-MEL-2 [9]): 7.58 µM
- TGI (SK-MEL-28 [10]): 3.13 µM
- TGI (OVCAR-3): 13.6 µM
- TGI (A498): 10.2 µM
- TGI (ACHN [11]): 11.4 µM
- TGI (MCF7 [12]): 3.48 µM
- IC50 [13]: 67 nM
- inhibition (Homo sapiens): -0.53%
- inhibition [15]: 24.8%
- solubility [22]: 497 µM (≈ 305 µg/mL)
- logD [23]: 2.54

Structure (SMILES): COc1cc2cc(Oc3ccc(NC(=O)Nc4ccc(Cl)c(C(F)(F)F)c4)cc3)c(C)nc2cc1OCCN1CCOCC1
- GI50 (NCI-H23): 1120 nM
- GI50 (HCC 2998 [1]): 11.1 µM
- GI50 (HCT-116): 10800 nM
- GI50 (SNB-75 [2]): 1650 nM
- GI50 (SK-MEL-2 [3]): 1650 nM
- GI50 (SK-MEL-28 [4]): 1550 nM
- GI50 (UACC-257): 1570 nM
- GI50 (IGROV-1): 2430 nM
- GI50 (NCI/ADR-RES): 2340 nM
- GI50 (SK-OV-3): 3.34 µM
- GI50 (786-0): 1890 nM
- GI50 (ACHN [5]): 2030 nM
- GI50 (UO-31): 1400 nM
- GI50 (DU-145): 2690 nM
- GI50 (MCF7 [6]): 1260 nM
- GI50 (Hs-578T): 1830 nM
- TGI (HL-60): 7.56 µM
- TGI (EKVX): 13.7 µM
- TGI (HOP-92): 6.17 µM
- TGI (NCI-H322M): 11.2 µM
- TGI (COLO 205): 3.78 µM
- TGI (HCC 2998 [7]): 11.1 µM
- TGI (KM12): 5.3 µM
- TGI (SNB-75 [8]): 7.05 µM
- TGI (MDA-MB-435): 4.1 µM
- TGI (SK-MEL-2 [9]): 4.06 µM
- TGI (SK-MEL-28 [10]): 3.12 µM
- TGI (OVCAR-3): 3.47 µM
- TGI (A498): 9.62 µM
- TGI (ACHN [11]): 11.6 µM
- TGI (MCF7 [12]): 3.33 µM
- IC50 [13]: 82 nM
- inhibition (Homo sapiens): -5.6%
- inhibition [14]: -6.33%
- inhibition [15]: 28.5%
- solubility [22]: 349 µM (≈ 221 µg/mL)
- logD [23]: 2.73
